Experimental data from patent publication US20250313546A1, “NUCLEIC ACID BINDERS” (UNIVERSITY OF STRATHCLYDE, priority 2022, published 2025).
pIC50: −log10 of the molar value. Converted amounts (≈) assume the structure as drawn.

Assays:
[1] = system: T. vaginalis; test: Trichomonas resorufin assay; assay type: cell-based; conditions: for pIC50: Trichomonas vaginalis, read-out: IC50 T. vaginalis
[2] = system: Staphylococcus aureus (ATCC 43300); test: Antibacterial MIC, broth microdilution (CLSI); assay type: cell-based; conditions: for MIC80: Staphylococcus aureus, ATCC43300, read-out: MIC80 S. aureus; for S. aureus Selectivity Indices, Group: SI, IC50 (μM)/MIC80 (μM), HEK293 cytotoxicity
[3] = system: Genomic double stranded DNA (salmon); test: Fluorescence intercalator displacement (FID) assay, SYBR-safe probe; conditions: 20 μM compound, 30° C., lower % = stronger binding
Protocol: (§1) The ability of compounds of the invention to bind to DNA and RNA was assessed using a fluorescence intercalator displacement assay. Genomic double stranded DNA (salmon) or PolyAU double stranded RNA is treated with probe molecule (Sybr-Safe) that increases its fluorescence upon binding to nucleic acids.
(§2) polyAU RNA (Polyadenylic acid—Polyuridylic acid sodium salt, double-stranded homopolymer, P1537, Merck) or genomic DNA (Deoxyribonucleic acid sodium salt from salmon testes, D1626, Merck) was dissolved in 1 mM pH 7.4 phosphate buffer (containing 0.27 mM potassium chloride, 13.7 mM sodium chloride) to a concentration of 1 mg/mL in, SybrSafe (SYBR® Safe DNA Gel Stain, ×10,000 in DMSO, S33102 Invitrogen) was used as supplied by the manufacturer in DMSO, and compounds of the invention were prepared as 10 mM stocks in DMSO. These stock solutions were diluted appropriately with each other and 1 mM phosphate buffer to give test solutions comprised of 20 μM compound of the invention, 12500-fold dilution of SybrSafe and 3.76 ng/mL RNA/DNA. Control solutions of RNA/DNA and SybrSafe, RNA/DNA, and SybrSafe at these concentrations were also prepared. Test and control solutions were heated to 30° C. and the fluorescence of each solution was measured using the SYBER filter setting of a StepOnePlus using melt analysis mode (StepOne Software v2.3). The reduction of fluorescence due to the binding of the compound of the invention to the RNA/DNA was calculated as a normalised percentage based on the fluorescence measured due to the control with SybrSafe and RNA/DNA as maximum and the control with only SybrSafe as minimum.
(§3) A reduction in normalised % is indicative of probe displacement and thus strong nucleic acid binding.

[4] = system: PolyAU double stranded RNA; test: as above; conditions: 20 μM compound, 30° C., lower % = stronger binding
Protocol: as §1, §2, §3

[5] = system: Enterococcus faecalis (ATCC 51299); test: Antibacterial MIC, broth microdilution (CLSI); assay type: cell-based; conditions: for MIC80: Enterococcus faecalis, ATCC51299, read-out: MIC80 E. faecalis
[6] = system: Escherichia coli (ATCC 25922); test: Antibacterial MIC, broth microdilution (CLSI); assay type: cell-based; conditions: Escherichia coli, ATCC25922; read-out: MIC80 E. coli
[7] = system: A. fumigatus A1160 (MFIG001); conditions: Aspergillus fumigatus, read-out: MIC99 A. fumigatus A1160
[8] = system: Candida glabrata (ACPF3309); conditions: Nakaseomyces glabratus, read-out: MIC99 Candida glabrata
[9] = system: C. neoformans (F10025); conditions: Cryptococcus neoformans, read-out: MIC99 C. neoformans

SMILES	pIC50 [1]	MIC80 [2] [µM]	% Normalised Fluorescence with gDNA [3] [%]	% Normalised Fluorescence with polyAU RNA [4] [%]	MIC80 [5] [µM]	MIC80 [6] [µM]	MIC99 [7] [µg/mL]	S. aureus Selectivity Indices, Group ([2]; Alkyl Amidines and NH Pyrroles)	MIC99 [8] [µg/mL]	MIC99 [9] [µg/mL]	T. vaginalis Selectivity Indices, Group ([1]; SI, IC50 (μM)/IC50 (μM), HEK293 cytotoxicity, Amides)	T. vaginalis Selectivity Index (SI) ([1]; SI, IC50 (μM)/IC50 (μM), HEK293 cytotoxicity, numeric value)	S. aureus Selectivity Indices, Group ([2]; Amides)	E. faecalis Selectivity Indices, Group ([5]; SI, IC50 (μM)/MIC80 (μM), HEK293 cytotoxicity, Amides)	E. faecalis Selectivity Index (SI) ([5]; SI, IC50 (μM)/MIC80 (μM), HEK293 cytotoxicity, numeric value)	T. vaginalis Selectivity Indices, Group ([1]; SI, IC50 (μM)/IC50 (μM), HEK293 cytotoxicity, Quaternary ammoniums)	S. aureus Selectivity Indices, Group ([2]; Quaternary ammoniums)
CC(C)NC(=O)c1cc(NC(=O)c2cc(NC(=O)c3ccc(/C=C/c4cnc5ccccc5c4)cc3)cn2C)cn1C [IVa4, (E)-N-isopropyl-1-methyl-4-(1-methyl-4-(4-(2-(quinolin-3-yl)vinyl)benzamido)-1H-pyrrole-2-carboxamido)-1H-pyrrole-2-carboxamide]	4.30 to 5.30	< 5	15	81	25 to 100 (≈ 14 to 56.1 µg/mL)	> 100											
C/N=C(/CCNC(=O)c1cc(NC(=O)c2cc(NC(=O)c3ccc(/C=C/c4ccc(C(F)(F)F)cc4)cc3)cn2C)cn1C)NC [Ia5, 1-methyl-4-(1-methyl-4-(4-((E)-4-(trifluoromethyl)styryl)benzamido)-1H-pyrrole-2-carboxamido)-N—((Z)-3-(methylamino)-3-(methylimino)propyl)-1H-pyrrole-2-carboxamide]		< 5	21	12		> 100	25 to 50 (≈ 39.5 to 78.9 µM)										
COc1cccc(/C=C/c2ccc(C(=O)Nc3cc(C(=O)Nc4cc(C(=O)NCCC(=N)NC(C)C)n(C)c4)n(C)c3)cc2)c1 [Ia19, (E)-N-(3-imino-3-(isopropylamino)propyl)-4-(4-(4-(3-methoxystyryl)benzamido)-1-methyl-1H-pyrrole-2-carboxamido)-1-methyl-1H-pyrrole-2-carboxamide]	4.30 to 5.30	5 to 25 (≈ 3.05 to 15.2 µg/mL)	10	8	5 to 25 (≈ 3.05 to 15.2 µg/mL)	25 to 100 (≈ 15.2 to 61 µg/mL)		B (Group B: 3 < SI <= 5)									
COc1cccc(/C=C/c2ccc(C(=O)Nc3cc(C(=O)Nc4cc(C(=O)NCCC(=N)NC(C)C)n(C)c4)n(C)c3)cn2)c1 [Ia23, (E)-N-(5-((5-((3-imino-3-(isopropylamino)propyl)carbamoyl)-1-methyl-1H-pyrrol-3-yl)carbamoyl)-1-methyl-1H-pyrrol-3-yl)-6-(3-methoxystyryl)nicotinamide]	4.30 to 5.30	25 to 100 (≈ 15.3 to 61.1 µg/mL)	41	25	> 100	> 100											
[H]/N=C(\CCNC(=O)c1cc(NC(=O)c2cc(NC(=O)c3ccc(C=Cc4ccc5nonc5c4)cc3)cn2C)cn1C)NCCCN(C)C [Ia46, (E)-4-(4-(2-(benzo[c][1,2,5]oxadiazol-5-yl)vinyl)benzamido)-N-(5-((3-((3-(dimethylamino)propyl)amino)-3-iminopropyl)carbamoyl)-1-methyl-1H-pyrrol-3-yl)-1-methyl-1H-pyrrole-2-carboxamide]	4.30 to 5.30	25 to 100 (≈ 16.6 to 66.5 µg/mL)	10	2	> 100	> 100											
[H]/N=C(\CCNC(=O)c1cc(NC(=O)c2cc(NC(=O)c3ccc(C=Cc4ccc5nonc5c4)cc3)cn2C)cn1C)N1CCN(C)CC1 [Ib4, (E)-4-(4-(2-(benzo[c][1,2,5]oxadiazol-5-yl)vinyl)benzamido)-N-(5-((3-imino-3-(4-methylpiperazin-1-yl)propyl)carbamoyl)-1-methyl-1H-pyrrol-3-yl)-1-methyl-1H-pyrrole-2-carboxamide]		< 5	20	5	< 5	> 100			25 to 50 (≈ 37.7 to 75.4 µM)	5 to 25 (≈ 7.54 to 37.7 µM)							
[H]/N=C(\CCNC(=O)c1cc(NC(=O)c2cc(NC(=O)c3ccc(C=Cc4ccc5nonc5c4)cc3)cn2C)cn1C)NC [Ia3, (E)-4-(4-(2-(benzo[c][1,2,5]oxadiazol-5-yl)vinyl)benzamido)-N-(5-((3-imino-3-(methylamino)propyl)carbamoyl)-1-methyl-1H-pyrrol-3-yl)-1-methyl-1H-pyrrole-2-carboxamide]		< 5	13	38		> 100	< 5										
CCCCNC(=O)c1cc(NC(=O)c2cc(NC(=O)c3ccc(/C=C/c4cnc5ccccc5c4)cc3)cn2C)cn1C [IVa5, (E)-N-butyl-1-methyl-4-(1-methyl-4-(4-(2-(quinolin-3-yl)vinyl)benzamido)-1H-pyrrole-2-carboxamido)-1H-pyrrole-2-carboxamide]	5.30 to 6.00	< 5	51	12	< 5	> 100					C (Group C: SI > 0.5)	2	B (Group B: 1.4 < SI <= 3)	C (Group: C, 1.5 < SI <= 5)	2		
Cn1cc(NC(=O)c2cc(NC(=O)c3ccc(/C=C/c4cnc5ccccc5c4)cc3)cn2C)cc1C(=O)NCCOCCOCCO [IVa7, (E)-N-(2-(2-(2-hydroxyethoxy)ethoxy)ethyl)-1-methyl-4-(1-methyl-4-(4-(2-(quinolin-3-yl)vinyl)benzamido)-1H-pyrrole-2-carboxamido)-1H-pyrrole-2-carboxamide]	4.30 to 5.30	5 to 25 (≈ 3.25 to 16.3 µg/mL)	65	92	> 100	> 100											
CN(C)c1ccc(/C=C/c2ccc(C(=O)Nc3cc(C(=O)Nc4cc(C(=O)NCCCCN5CCCCC5)n(C)c4)n(C)c3)cn2)cc1 [IVa14, (E)-6-(4-(dimethylamino)styryl)-N-(1-methyl-5-((1-methyl-5-((4-(piperidin-1-yl)butyl)carbamoyl)-1H-pyrrol-3-yl)carbamoyl)-1H-pyrrol-3-yl)nicotinamide]		5 to 25 (≈ 3.25 to 16.3 µg/mL)	19	12	25 to 100 (≈ 16.3 to 65.1 µg/mL)	> 100											
CCCCCC[N+](C)(C)CCNC(=O)c1cc(NC(=O)c2cc(NC(=O)c3ccc(/C=C/c4cnc5ccccc5c4)cc3)cn2C)cn1C [Ic5, (E)-N,N-dimethyl-N-(2-(1-methyl-4-(1-methyl-4-(4-(2-(quinolin-3-yl)vinyl)benzamido)-1H-pyrrole-2-carboxamido)-1H-pyrrole-2-carboxamido)ethyl)hexan-1-aminium]	5.30 to 6.00	< 5			5 to 25	> 100	> 50		5 to 25							B (Group B: 0.8 < SI <= 1.5)	C (Group C: 5 < SI <= 10)
C/N=C(/CCNC(=O)c1cc(NC(=O)c2cc(NC(=O)c3ccc(/C=C/c4ccc5ccccc5c4)cc3)cn2C)cn1C)NC [Ia7, 1-methyl-4-(1-methyl-4-(4-((E)-2-(naphthalen-2-yl)vinyl)benzamido)-1H-pyrrole-2-carboxamido)-N—((Z)-3-(methylamino)-3-(methylimino)propyl)-1H-pyrrole-2-carboxamide]		< 5	10	24		> 100	25 to 50 (≈ 40.6 to 81.2 µM)										
CNC(=O)c1cc(NC(=O)c2cc(NC(=O)c3ccc(/C=C/c4ccc(N(C)C)cc4)nc3)cn2C)cn1C [IVa13, (E)-6-(4-(dimethylamino)styryl)-N-(1-methyl-5-((1-methyl-5-(methylcarbamoyl)-1H-pyrrol-3-yl)carbamoyl)-1H-pyrrol-3-yl)nicotinamide]		< 5	80	83	< 5	> 100											
